Read-outs that look alike come from different tables or passages of the source.
Columns and labels:
[1] = tested on: HCV genotype-1a variant with glutamine 30 changed to glutamate in the NS5A protein; conditions: cited from earlier work
[2] = tested on: HCV genotype 1a Y93H variant with tyrosine 93 changed to histidine in the NS5A protein; assay: microbe, parasite or virus in culture; assay type: cell-based; conditions: for EC50: Hepatitis C virus; for Fold-Synergistic G-1a (Y93H): genotype 1a Y93H replicon, test compound titrated with compound N47 fixed at 200 nM versus singly
In short: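 In an HCV genotype 1a replicon cell-based assay carrying the NS5A Y93H substitution, BMS-790052 was tested alone and in combination with a fixed amount of a second test compound. The combinations were examined for synergistic activity.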

[3] = tested on: HCV genotype 1a L31V variant with leucine 31 changed to valine in the NS5A protein; assay: microbe, parasite or virus in culture; assay type: cell-based; conditions: for EC50: Hepatitis C virus; for Fold-Synergistic G-1a (L31V): genotype 1a L31V replicon, test compound titrated with compound N47 fixed at 200 nM versus singly
[4] = tested on: HCV genotype-1a variant with glutamine 30 changed to glutamate in the NS5A protein; assay type: cell-based; conditions: test compound titrated with BMS-790052 fixed at 200 nM; genotype 1a Q30E replicon
In short: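 Synergy was assessed by combining several fixed amounts of an NS5A-targeting compound with a titration of the second compound of interest.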

[5] = compound alone, genotype 1a Q30E replicon, read-out: EC50, titrated singly
[6] = read-out: EC50, titrated singly
[7] = read-out: EC50 in combination with compound N47

SMILES: COC(=O)N[C@H](C(=O)N1CCC[C@H]1c1nc(-c2ccc(-c3ccc(-c4c[nH]c([C@@H]5CCCN5C(=O)[C@@H](NC(=O)OC)C(C)C)n4)cc3)cc2)c[nH]1)C(C)C [BMS-790052, reference compound]
- reciprocal synergistic inhibitory effect for the combination ([1]; BMS-790052 titrated with P-55 fixed at 200 nM): ~100 fold
- EC50 [1, 5]: ~200 nM
- EC50 ([1]; fixed P-55 at 200 nM, genotype 1a Q30E, read-out: EC50 of BMS-790052 in the presence of P-55): ~2 nM
- EC50 [2, 6]: ~69 nM
- EC50 [2, 7]: < 0.5 nM
- synergistic inhibitory effect for the combination ([2]; titrated with 200 nM compound N47, genotype 1a Y93H): > 100 fold
- EC50 [3, 6]: ~56 nM
- EC50 [3, 7]: < 0.5 nM
- synergistic inhibitory effect with the combination ([3]; titrated with 200 nM compound N47, genotype 1a L31V): > 100 fold

SMILES: CC(C)CC(=O)N[C@H](c1ncc(-c2ccc(-c3ccc(-c4cnc([C@@H](NC(=O)CC(C)C)C(C)C)[nH]4)cc3)cc2)[nH]1)C(C)C [Compound P-55]
- synergistic inhibitory effect with the combination ([1]; P-55 titrated with BMS-790052 fixed at 200 nM): > 100 fold
- EC50 [1, 5]: > 200 nM
- EC50 ([1]; fixed BMS-790052 at 200 nM, genotype 1a Q30E, read-out: EC50 of P-55 in the presence of BMS-790052): ~2 nM
- Fold-Synergistic 1a (Q30E) [4]: >100 fold

SMILES: CC(=O)N1CCC[C@H]1C(=O)Nc1ccc(-c2nc(-c3ccc(NC(=O)[C@@H]4C=CCN4C(=O)Cc4ccccc4)cc3)cs2)cc1
- Fold-Synergistic G-1a (Y93H) [2]: <10 fold
- Fold-Synergistic G-1a (L31V) [3]: <10 fold

SMILES: COC(=O)N[C@H](C(=O)N1[C@@H](C)CC[C@H]1c1ncc(-c2ccc(-c3ccc(-c4cnc([C@@H]5CC[C@H](C)N5C(=O)[C@@H](NC(=O)OC)C(C)C)[nH]4)cc3)cc2)[nH]1)C(C)C
- Fold-Synergistic G-1a (Y93H) [2]: >100 fold
- Fold-Synergistic G-1a (L31V) [3]: >100 fold

SMILES: COC(=O)N[C@H](C(=O)N1C[C@@H](C)C[C@H]1c1ncc(-c2ccc(-c3ccc(-c4cnc([C@@H]5C[C@H](C)CN5C(=O)[C@@H](NC(=O)OC)C(C)C)[nH]4)cc3)cc2)[nH]1)C(C)C
- Fold-Synergistic G-1a (Y93H) [2]: >100 fold
- Fold-Synergistic G-1a (L31V) [3]: >10 fold

SMILES: CN(C)[C@@H](C(=O)N1CCC[C@H]1c1nc2ccc(-c3ncc([C@@H]4CCCN4C(=O)[C@@H](c4ccccc4)N(C)C)o3)cc2[nH]1)c1ccccc1
- Fold-Synergistic G-1a (Y93H) [2]: <10 fold
- Fold-Synergistic G-1a (L31V) [3]: <10 fold

SMILES: COC(=O)N[C@H](C(=O)N1CCC[C@H]1c1ncc(-c2cnc(-c3ncc(-c4cnc([C@@H]5CCCN5C(=O)[C@@H](NC(=O)OC)C(C)C)[nH]4)s3)s2)[nH]1)C(C)C
- Fold-Synergistic G-1a (Y93H) [2]: >100 fold
- Fold-Synergistic G-1a (L31V) [3]: >10 fold

SMILES: COC(=O)N[C@H](C(=O)N1CCC[C@H]1c1nc2ccc(C#CC#Cc3ccc4nc([C@@H]5CCCN5C(=O)[C@@H](NC(=O)OC)C(C)C)[nH]c4c3)cc2[nH]1)C(C)C
- Fold-Synergistic G-1a (Y93H) [2]: >10 fold
- Fold-Synergistic G-1a (L31V) [3]: >100 fold

SMILES: COC(=O)N[C@@H](C(=O)N1CCC[C@H]1c1ncc(-c2ccc(-c3ncc(-c4cnc([C@@H]5CCCN5C(=O)[C@H](NC(=O)OC)c5ccccc5)[nH]4)cn3)cc2)[nH]1)c1ccccc1
- Fold-Synergistic G-1a (Y93H) [2]: <10 fold
- Fold-Synergistic G-1a (L31V) [3]: <10 fold

SMILES: COC(=O)N[C@H](C(=O)N1CCC[C@H]1c1nc(-c2ccc(C#Cc3ccc4[nH]c([C@@H]5CCCN5C(=O)[C@@H](NC(=O)OC)C(C)C)nc4c3)cc2)c[nH]1)C(C)C
- Fold-Synergistic G-1a (Y93H) [2]: >100 fold
- Fold-Synergistic G-1a (L31V) [3]: >100 fold

SMILES: COC(=O)N[C@H](C(=O)N1[C@@H]2C[C@@H]2C[C@H]1c1nc2cc(CCc3ccc4c(ccc5[nH]c([C@@H]6C[C@H]7C[C@H]7N6C(=O)[C@@H](NC(=O)OC)C6CCOCC6)nc54)c3)ccc2[nH]1)C(C)C
- Fold-Synergistic G-1a (Y93H) [2]: >100 fold
- Fold-Synergistic G-1a (L31V) [3]: >10 fold

SMILES: C[C@H](NC(=O)[C@@H](c1ccccc1)N(C)C)c1ncc(-c2ccc(-c3ccc(-c4cnc([C@@H]5CCCN5C(=O)[C@@H](c5ccccc5)N(C)C)[nH]4)cn3)cc2)[nH]1
- Fold-Synergistic G-1a (Y93H) [2]: <10 fold
- Fold-Synergistic G-1a (L31V) [3]: <10 fold

SMILES: COC(=O)N[C@H](C(=O)N(C)[C@@H](C)c1ncc(-c2ccc(C#Cc3ccc(-c4cnc([C@H](C)N(C)C(=O)[C@@H](NC(=O)OC)C(C)C)[nH]4)cc3)cc2)[nH]1)C(C)C
- Fold-Synergistic G-1a (Y93H) [2]: <10 fold
- Fold-Synergistic G-1a (L31V) [3]: >10 fold

SMILES: CN(C)[C@@H](C(=O)N1CCC[C@H]1c1nc(-c2ccc(COCc3ccc(-c4c[nH]c([C@@H]5CCCN5C(=O)[C@@H](c5ccccc5)N(C)C)n4)cc3)cc2)c[nH]1)c1ccccc1
- Fold-Synergistic G-1a (Y93H) [2]: <10 fold
- Fold-Synergistic G-1a (L31V) [3]: <10 fold

SMILES: COC(=O)N[C@H](C(=O)N1C[C@H](C)CC1c1nc(-c2ccc(-c3ccc(-c4cnc([C@@H]5C[C@@H](C)CN5C(=O)[C@@H](NC(=O)OC)C(C)C)[nH]4)cc3)cc2)c[nH]1)C(C)C (stereo partly drawn)
- Fold-Synergistic G-1a (Y93H) [2]: >100 fold
- Fold-Synergistic G-1a (L31V) [3]: >100 fold

SMILES: COC(=O)N[C@H](C(=O)N1CCOC[C@H]1c1nc(-c2ccc(-c3ccc4cc(-c5c[nH]c([C@@H]6COCCN6C(=O)[C@@H](NC(=O)OC)C(C)C)n5)ccc4c3)cc2)c[nH]1)C(C)C
- Fold-Synergistic G-1a (Y93H) [2]: >10 fold
- Fold-Synergistic G-1a (L31V) [3]: >10 fold

SMILES: COC(=O)N[C@H](C(=O)N1[C@H]2C[C@@]2(C)C[C@H]1c1ncc(-c2ccc(-c3ccc(-c4cnc([C@@H]5C[C@]6(C)C[C@@H]6N5C(=O)[C@@H](NC(=O)OC)C(C)C)[nH]4)cc3)cc2)[nH]1)C(C)C
- Fold-Synergistic G-1a (Y93H) [2]: >100 fold
- Fold-Synergistic G-1a (L31V) [3]: >100 fold

SMILES: O=C(c1nc(Cl)cc2ccccc12)N1CCC[C@H]1c1nc2ccc(C#Cc3ccc4nc([C@@H]5CCCN5C(=O)c5nc(Cl)cc6ccccc56)[nH]c4c3)cc2[nH]1
- Fold-Synergistic G-1a (Y93H) [2]: <10 fold
- Fold-Synergistic G-1a (L31V) [3]: <10 fold

SMILES: COC(=O)N[C@H](C(=O)N1CCC[C@H]1c1ncc(-c2ccc3oc(-c4ccc5nc([C@@H]6CCCN6C(=O)[C@@H](NC(=O)OC)C(C)C)[nH]c5c4)nc3c2)[nH]1)C(C)C
- Fold-Synergistic G-1a (Y93H) [2]: >100 fold
- Fold-Synergistic G-1a (L31V) [3]: >100 fold

SMILES: O=C(Nc1ccc(C#Cc2ccc(NC(=O)[C@@H]3CCCN3C(=O)CC3CC3)cc2)cc1)[C@@H]1CCCN1C(=O)CC1CC1
- Fold-Synergistic G-1a (Y93H) [2]: <10 fold
- Fold-Synergistic G-1a (L31V) [3]: <10 fold

SMILES: COC(=O)N[C@H](C(=O)N1CCC[C@H]1c1nc2ccc(Oc3ccc(-c4ccc5nc([C@@H]6CCCN6C(=O)[C@@H](NC(=O)OC)C(C)C)[nH]c5c4)cc3)cc2[nH]1)C(C)C
- Fold-Synergistic G-1a (Y93H) [2]: <10 fold
- Fold-Synergistic G-1a (L31V) [3]: <10 fold

SMILES: COC(=O)N[C@H](C(=O)N1[C@H](c2ncc(-c3ccc(-c4ccc(-c5cnc([C@@H]6C[C@@H](C)[C@H](C)N6C(=O)[C@@H](NC(=O)OC)C(C)C)[nH]5)cc4)cc3)[nH]2)C[C@@H](C)[C@@H]1C)C(C)C
- Fold-Synergistic G-1a (Y93H) [2]: >100 fold
- Fold-Synergistic G-1a (L31V) [3]: >100 fold

SMILES: COC(=O)N[C@H](C(=O)N1C[C@@H](C)C[C@H]1c1ncc(-c2ccc(-c3ccc4cc(-c5cnc([C@@H]6C[C@H](C)CN6C(=O)[C@@H](NC(=O)OC)C(C)C)[nH]5)ccc4c3)cc2)[nH]1)C(C)C
- Fold-Synergistic G-1a (Y93H) [2]: >10 fold
- Fold-Synergistic G-1a (L31V) [3]: <10 fold

SMILES: CN(C)[C@@H](C(=O)N1CCC[C@H]1c1ncc(-c2ccc(-c3ccc(-c4cnc([C@@H]5CCCN5C(=O)[C@@H](c5ccccc5)N(C)C)[nH]4)s3)s2)[nH]1)c1ccccc1
- Fold-Synergistic G-1a (Y93H) [2]: <10 fold
- Fold-Synergistic G-1a (L31V) [3]: <10 fold

SMILES: O=C(Cc1ccccc1)N1CCC[C@H]1c1nc2cc(-c3ccc4nc([C@@H]5CCCN5C(=O)Cc5ccccc5)[nH]c4c3)ccc2[nH]1
- Fold-Synergistic G-1a (Y93H) [2]: <10 fold
- Fold-Synergistic G-1a (L31V) [3]: <10 fold

SMILES: COC(=O)N[C@@H](C(=O)N1CCC[C@H]1c1ncc(-c2ccc(-c3ccc(-c4cnc([C@@H]5CCCN5C(=O)[C@H]5CCCO5)[nH]4)cc3)cc2)[nH]1)c1ccccc1
- Fold-Synergistic G-1a (Y93H) [2]: <10 fold
- Fold-Synergistic G-1a (L31V) [3]: <10 fold

SMILES: CN(C)C(C(=O)N1CCC[C@H]1c1nc(-c2ccc3nc([C@@H]4CCCN4C(=O)C(c4ccccc4)N(C)C)[nH]c3c2)c[nH]1)c1ccccc1 (stereo partly drawn)
- Fold-Synergistic G-1a (Y93H) [2]: <10 fold
- Fold-Synergistic G-1a (L31V) [3]: <10 fold

Reference: patent US20160158200A1, “Combinations of Hepatitis C Virus Inhibitors” (priority 2013, published 2016)
